Laboratory results reported in ChEMBL document CHEMBL1255239, “Increases in SLT2 expression and chitin content are associated with incomplete killing of Candida glabrata by caspofungin” (2008).
The source made the active and inactive calls. The rule behind the calls is not given here.

Tests used:
Nakaseomyces glabratus [1] = assay: Antifungal activity against Candida glabrata 200989 at 0 to 32 ug/ml by XTT […] assay; assay type: functional, organism-based
Nakaseomyces glabratus [2] = assay: Increase in slt2 gene expression in Candida glabrata 200989 at 0.125 to 16 ug/ml after 180 mins by RT-PCR analysis relative to control; assay type: functional
Nakaseomyces glabratus [3] = assay: Antifungal activity against slt2 deficient Candida glabrata 200989 assessed as log reduction in bacterial count at 16 ug/ml by time-kill analysis; assay type: functional
Nakaseomyces glabratus [4] = assay: Increase in CHS3 gene expression in Candida glabrata 200989 at 0.125 to 16 ug/ml after 180 mins by RT-PCR analysis relative to control; assay type: functional
Nakaseomyces glabratus [5] = assay: Increase in CHS3 gene expression in slt2 deficient Candida glabrata 200989 at 0.125 to 16 ug/ml after 180 mins by RT-PCR analysis; assay type: functional, organism-based
Nakaseomyces glabratus [6] = assay: Increase in chitin content in slt2 deficient Candida glabrata 200989 at 0.125 to 16 ug/ml after 12 hrs; assay type: functional, organism-based
Nakaseomyces glabratus [7] = assay: Antifungal activity against slt2 deficient Candida glabrata 200989 assessed as log reduction in bacterial count at 1 ug/ml by time-kill analysis; assay type: functional
Nakaseomyces glabratus [8] = assay: Increase in chitin content in Candida glabrata 200989 at 0.125 to 16 ug/ml after 12 hrs relative to control; assay type: functional
Nakaseomyces glabratus [9] = assay: Antifungal activity against slt2 deficient Candida glabrata 200989 assessed as log reduction in bacterial count at 0.125 ug/ml by time-kill analysis; assay type: functional
Nakaseomyces glabratus [10] = assay: Antifungal activity against Candida glabrata 200989 at 0.125 to 16 ug/ml by time-kill analysis; assay type: functional, organism-based
Nakaseomyces glabratus [11] = assay: Antifungal activity against Candida glabrata 200989 assessed as log reduction in bacterial count at 0.125 to 16 ug/ml by time-kill analysis; assay type: functional
Nakaseomyces glabratus [12] = assay: Increase in slt2 gene expression in Candida glabrata 200989 at 0.125 to 16 ug/ml after 10 mins by RT-PCR analysis relative to control; assay type: functional
Nakaseomyces glabratus [13] = assay: Increase in slt2 gene expression in Candida glabrata 200989 at 0.125 to 16 ug/ml after 12 hrs by RT-PCR analysis; assay type: functional, organism-based

CC[C@H](C)C[C@H](C)CCCCCCCCC(=O)N[C@H]1C[C@@H](O)[C@@H](NCCN)NC(=O)[C@@H]2[C@@H](O)CCN2C(=O)[C@H]([C@H](O)CCN)NC(=O)[C@H]([C@H](O)[C@@H](O)c2ccc(O)cc2)NC(=O)[C@@H]2C[C@@H](O)CN2C(=O)[C@H]([C@@H](C)O)NC1=O [CASPOFUNGIN]
Activity (Nakaseomyces glabratus [1]): inactive
fold change (FC) (Nakaseomyces glabratus [2]): >=3.8
log10cfu (Nakaseomyces glabratus [3]): 4.2 /ml
fold change (FC) (Nakaseomyces glabratus [4]): >2
Activity (Nakaseomyces glabratus [5]): inactive
Activity (Nakaseomyces glabratus [6]): inactive
log10cfu (Nakaseomyces glabratus [7]): 4.2 /ml
fold change (FC) (Nakaseomyces glabratus [8]): >3.5
log10cfu (Nakaseomyces glabratus [9]): 2.6 /ml
Activity (Nakaseomyces glabratus [10]): inactive
log10cfu (Nakaseomyces glabratus [11]): 1.6 /ml
fold change (FC) (Nakaseomyces glabratus [12]): >2
Activity (Nakaseomyces glabratus [13]): inactive
